Data taken from patent US20130053323A1, “METHODS AND USE RELATED TO HUMANIN AND HUMANIN-LIKE PEPTIDES” (priority 2009, published 2013).

Legend:
[1] = system: fetal rat metatarsal bones; assay: Longitudinal growth of cultured fetal rat metatarsal bones; assay type: cell-based
Protocol: (§1) The three middle metatarsal bone rudiments were dissected out from the paws of 20-day-old embryos (E20) (De Luca, Barnes et al. 2001). After dissection, bones were transferred to 24-well plates, one bone per well and cultured in 0.5 ml phenol-red MEM medium supplemented with 0.2% endotoxin-free fraction BSA, […] β-glycerophosphate, 0.05 mg/ml ascorbic acid and 100 μg/ml penicillin/streptomycin at 37° C. under 5% CO2 in humidified atmosphere. Medium was changed every 2-3 days. Images were captured at days 0, 2, 5, 7, 9 and 12 of culture, using a Hamamatsu C4742-95 digital camera mounted on a Nikon SMZ-U microscope. The Image-Pro plus™ (Media Cybernetics, USA) software was used to measure longitudinal growth. Metatarsal bone growth is expressed as a percentage of the length at the day of dissection (regarded as day 0). Treatment with CT (bortezomib), dexamethasone and/or HNG (S14G) was started 2-4 hours after dissection. All isolated bones were pooled and then randomly divided into the different treatment groups (4 to 6 bones per group). Each experiment was repeated at least 3 times.
The data shown in FIG. 2A indicates novel growth promoting/protective effects of humanin analog HNG (S14G) on longitudinal bone growth in cultured fetal rat metatarsal bones. […] Briefly, fetal rat metatarsal bones were pre-treated with different concentrations (mentioned in the figure) of HNG (S14G), 30 min prior to addition of Dexa. […] (n=4-6 bones/group)
CT (bortezomib) is a cytotoxic drug known to cause critical alterations in cells/tissues and disturb the cellular homeostasis. To test the effect of CT (bortezomib) on chondocytes and longitudinal bone growth, the established in vitro model of fetal rat metatarsal bones was used. These bones were collected as described in material and methods, cultured and treated with different concentrations of CT (bortezomib) under sterile conditions for up to 12 days. […] Apoptosis was analyzed in whole growth plate sections of 12-day cultured rat metatarsal bones (perichondrium excluded) by applying the TUNEL technique to detect DNA fragmentation.
In an attempt to block and prevent the negative effects on growth after CT (bortezomib)-treatment, recently discovered humanin analog HNG (S14G) was tested in vitro in fetal rat metatarsal bones.

growth plate cartilage = assay: Growth plate histology, resting and proliferating chondrocyte zone (R+P); assay type: in vivo, mice; settings: Dexa alone, four weeks
Protocol: Four weeks old mice (female, FVB) were injected with Dexa dissolved in saline ([…]) subcutaneously in the neck every day for four week. Whereas, HNG (S14G) dissolved in saline (1 μg/mice) was injected intra-peritoneally, 45 minutes prior to the Dexa injection for four weeks, for details see materials and methods. The femur and tibia bones were dissected out and fixed in 4% formalin for 24 hrs, followed by decalcification in 10% EDTA and embedded in paraffin blocks. Five-micrometer-thick sections were prepared from these paraffin blocks. The sections were prepared from the tibial growth plate and stained with Van Gieson. Digital images of stained sections were collected using a Nikon Eclipse E800 microscope (Nikon Corp., Tokyo, Japan) equipped with an Olympus DP70 digital camera (Olympus Sverige AB, Solna, Sweden).
Since a positive effect of HNG (S14G) on bone growth was identified, different zones of chondrocytes were analyzed (resting, proliferative and hypertrophic) in growth plate cartilage, to identify visible changes in these zones. […] These micropgraphas also explain the longitudinal bone growth promoting effects by HNG (S14G) alone or in combination with Dexa.

FVB mice = assay: Dexa-induced growth retardation in FVB mice (tibia length, nose to anus length); assay type: in vivo; settings: Dexa 20 μg/mice/day s.c.
Protocol: Four weeks old female mice FVB strain were obtained from Charles-River, Germany. The mice were kept in animal facility under a 12-h light, 12-h dark schedule with water ad libitum. After an adaptation period, mice were injected with Dexa dissolved in saline (20 μg/mice) subcutaneously in the neck every day for 1 week (short-term). Whereas, HNG (S14G) dissolved in saline (1 μg/mice) was injected intraperitoneally, 45 minutes prior to Dexa injection. The vehicle group received saline only. After one week of treatment/injections, animals were sacrificed and the back legs (femur and tibia) were collected. The skin and muscle from the tibia was removed and final length of tibia was measured by using electronic digital caliper as reported previously (Zaman, Menendez-Benito et al. 2007).
In another study, four weeks old female mice FVB strain (Charles-river, Germany) were injected with Dexa dissolved in saline (20 μg/mice) subcutaneously in the neck every day for four week (long-term). Whereas, HNG (S14G) dissolved in saline (1 μg/mice) was injected intraperitoneally, 45 minutes prior to Dexa injection. The vehicle group received saline only. The total body length (nose to anus) was measured (centimeters, cm) manually (blinded, the cadges were coded on the day of measurment), every week. After 4 weeks of treatment, animals were sacrificed by inhalation of CO2, tissue samples (both left and right leg) were collected for subsequent analysis.
HNG injections were given […] prior to Dexa injections. […] After this, we next asked whether HNG (S14G) has any protective effects on bone growth after long-term treatment with Dexa (FIG. 3A). To investigate this, we treated mice for 4 weeks (group 2) with Dexa (20 μg/mice/day) and HNG (1 μg/mice/day). […] In FIG. 3B, total growth of the animals, nose to anus length (cm, manually) was analyzed in vehicle, Dexa, HNG (S14G) and Dexa/HNG (S14G) treated animals after four weeks of injections. **p<0.01 by 1-way ANOVA analyses, n=9-10/animals/group).

[2] = system: neuroblastoma (SK-N-BE(2)) tumor xenografts; assay: Doubling time of tumors in neuroblastoma xenografts; assay type: in vivo, human; settings: bortezomib 0.8 mg/kg i.v. days 1, 4, 8, 11; p<0.05 vs vehicle
[3] = system: chondrocytes of fetal rat metatarsal bones; assay: TUNEL apoptosis in growth plate sections of cultured rat metatarsal bones; assay type: cell-based; settings: bortezomib 1-1000 nM, 12-day culture, p<0.001 vs control
Protocol: as §1
CT (bortezomib) is a cytotoxic drug known to cause critical alterations in cells/tissues and disturb the cellular homeostasis. […] Apoptosis was analyzed in whole growth plate sections of 12-day cultured rat metatarsal bones (perichondrium excluded) by applying the TUNEL technique to detect DNA fragmentation.

[4] = system: human growth plate cartilage; assay type: cell-based; settings: both, 24 h, 1000 nM
Protocol: Biopsies from the proximal tibia and distal femur growth plates were collected in 5 pubertal children (3 boys and 2 girls) undergoing epiphyseal surgery for different medical conditions (4 patients with constitutional tall stature and 1 patient with leg length discrepancy). Biopsies were cut into thin slices under microscope and cultured for 24 hrs in the presence of 1000 nM CT (bortezomib). After fixation and sectioning, growth plates were analyzed using the TUNEL assay to determine the levels of chondrocyte apoptosis. […] CT (bortezomib) caused a significant increase in apoptosis (22.2±4.4% TUNEL positive cells vs. 6.3±1.8% in control; **p≦0.01, n=5 patients), which was mainly observed in stem-like and early proliferative chondrocytes. Our confirmation that human growth plate cartilage is also highly sensitive to bortezomib-induced cytotoxicity is of considerable clinical importance.

growth plate = system: growth plate
Description: The proteasome inhibitors (PIs), including bortezomib (Velcade™, PS-341), belong to another novel and promising group of CT that has past phase I clinical trials (Blaney, Bernstein et al. 2004) and are now under phase II clinical trials in pediatric cancers. However, secondary effects on normal bystander tissues of primary life saving modalities are so far unknown.

[5] = system: growth plate chondrocytes; assay: TUNEL chondrocyte apoptosis in growth plate sections of C57B and NMRI mice; assay type: in vivo; settings: bortezomib 1 mg/kg i.p.; day 13 (48 hrs post treatment); each strain, p<0.001 vs vehicle
Protocol: (§2) Normal 5-week old male C57B and NMRI (B&K Universal, Sollentuna, Sweden) mice were housed one per cage in our animal care facility under a 12-h light, 12-h dark schedule with water ad libitum. After an adaptation period, each strain of mice were divided into two groups according to their body weight and were weight-matched into pairs to either receive 1 cycle intra peritoneal (i.p) injections of CT (bortezomib; Millennium Pharmaceuticals, USA, 1 mg/kg of body weight; 2 injections/week, 2 weeks treatment) or saline (vehicle). Body weight, food and general physical status was recorded daily during the first 20 days, and each vehicle-treated mouse was pair-fed to corresponding weight-matched CT (bortezomib)-treated mice. […] X-ray analyses where performed approximately every second week from start of treatment (represents time-point zero) to time of killing (day 56).
Cell death is a well known and desirable phenomenon in the anti-cancer therapy. However, side-effects of the treatment in other tissues and cells is not uncommon. To further investigate the underlying mechanism(s) to the observed growth impairment in vivo we studied apoptosis (by the TUNEL method). Apoptosis was quantified in paraffin embedded growth plate sections of CT (bortezomib) and vehicle treated C57B and NMRI mice sacrificed on day 13 of the study (48 hrs post treatment).

[6] = system: apoptosis inducing factor (AIF) and BAX; assay: Western immunoblotting of pro-apoptotic proteins in C5.18 chondrocytic cell line; assay type: cell-based, rat; settings: 1000 nM bortezomib, 6hrs
Protocol: Western immunoblotting to study protein expression was performed in the rat C5.18 chondrocytic cell line after treatment with 1000 nM CT (bortezomib) or 100 nM humanin analog HNG (S14G)/1000 nM CT (bortezomib (Btz)) for 6hrs. […] By adding humanin analog HNG (S14G), the up-regulation and activation of the two pro-apoptotic proteins were suppressed. […] As an internal control the house-keeping gene, GAPDH (35 kDa) was used. The experiment was repeated twice.

C57B and NMRI mice = assay: Bone length (X-ray) and body weight in normal C57B and NMRI mice; assay type: in vivo; settings: for bone length (femur, X-ray): bortezomib 1 mg/kg i.p., 1 cycle
Protocol: as §2
FIG. 5 illustrates a schematic representation of the experimental design for the in vivo studies in C57B and NMRI mice. Both strains of mice were housed one per cage with water ad libitum. At start of treatment, mice were randomized into two groups based on their body weight and were weight-matched into pairs to either receive 1 cycle of intraperitoneal (i.p.) injected CT (bortezomib, 1 mg/kg) or vehicle at the indicated time-points; day 1, 4, 8 and 11. Each vehicle treated mouse was pair-fed to a corresponding weight-matched CT (bortezomib) treated mouse. Mice were killed (t) on day 13 (48 hrs post treatment) or on day 56 (45 days post treatment). X-ray analyses where performed approximately every second week from start of treatment (represents time-point zero) to time of killing (day 13 or 56). Bone lengths (mm) of femur were analyzed in vehicle- and CT (bortezomib) treated animals. Each group included 7-10 mice.
Body weight was measured in both strains of mice every day until day 20 after start of treatment, and once per week thereafter. […] The vertical hatched line in FIGS. 6A and B indicates the last injection on day 11. In light of the growth inhibiting effect on metatarsal bones in vitro and the association of many other cytotoxic drugs, the effect on bone growth was investigated in vivo. Normal 5-week old male C57B and NMRI mice were weigh-matched into pairs to either receive 1 cycle intra peritoneal (i.p) injections of CT (bortezomib) at a clinical relevant dose (1mg/kg of body weight; 2 injections/week, 2 weeks treatment) or saline (vehicle). One group were killed 48 hrs after last injection (day 13) to study the direct effects on bone growth and the growth plate chondrocytes. The second group of animals were followed another 45 days without any treatment and then killed (day 56, 45 days post treatment) to look at the long-term effect and if there was any catch-up growth. […]

male Wistar rats = settings: cited from earlier work

## Colivelin
[1]; colivelin 100 μM combined with Dexa 1 μM
  protection against Dexa-induced bone growth retardation: some protective effect against Dexa-induced bone growth retardation
[1]; colivelin alone, cultured for 12 days
  longitudinal growth: some stimulatory effect on longitudinal growth

## C[C@@H]1C[C@H]2[C@@H]3CCC4=CC(=O)C=C[C@]4(C)[C@@]3(F)[C@@H](O)C[C@]2(C)[C@@]1(O)C(=O)CO [Dexa, Dexamethasone, reference compound]
Growth plate cartilage
  size of resting and proliferating chondrocyte zone (R+P): appears smaller
[1]; Dexa 1 μM alone
  longitudinal bone growth: induced growth retardation
FVB mice; 1 week
  growth (tibia length): significantly induced growth retardation
FVB mice; 4 weeks, vs vehicle
  growth (nose to anus length): significantly growth retarded

## CC(C)C[C@H](NC(=O)[C@H](Cc1ccccc1)NC(=O)c1cnccn1)B(O)O [CT (bortezomib), bortezomib]
[1]; bortezomib 50 nM or higher, from day 2 throughout 12 days, p<0.001 vs control
  longitudinal bone growth: Significant growth suppression
[1]; bortezomib 1000 nM for only 24 hrs, then control medium up to 12 days
  longitudinal bone growth: permanent growth arrest
[1]; bortezomib, all concentrations tested (25-100 nM)
  longitudinal bone growth: completley abolished growth
[2]
  tumor doubling time: significant reduction in tumor doubling time
[3]
  chondrocyte apoptosis (TUNEL): significant dose-dependent increase in chondrocyte apoptosis
[4]
  TUNEL positive cells: 22.2±4.4%
Growth plate
  effect on growth plate and growth: permanent growth retardation and chondrocyte cell death
[5]
  chondrocyte apoptosis (TUNEL): significant induction of chondrocyte apoptosis
[6]
  expression of pro-apoptotic proteins AIF and BAX: induce up-regulation and activation
C57B and NMRI mice; C57BL mice, bortezomib 1 mg/kg i.p. days 1, 4, 8, 11, vs vehicle
  body weight: no difference in body weight
C57B and NMRI mice; NMRI mice, bortezomib 1 mg/kg i.p. days 1, 4, 8, 11, day 36 until day 56, vs vehicle
  body weight: significant difference in body weight
C57B and NMRI mice; after 45 day follow-up (day 56), p<0.001
  bone length (femur, X-ray): still significantly shorter
C57B and NMRI mice; day 13, both strains, p<0.001 vs vehicle
  bone length (femur, X-ray): significantly shorter

## CN(Cc1cnc2nc(N)nc(N)c2n1)c1ccc(C(=O)N[C@@H](CCC(=O)O)C(=O)O)cc1 [methotrexate]
Male Wistar rats
  reduction in tibia length: 5%

## CC(C)C[C@H](NC(=O)[C@H](CC(C)C)NC(=O)[C@H](CC(C)C)NC(=O)OCc1ccccc1)B(O)O [MG262]
Growth plate
  effect on growth plate and growth: permanent growth retardation and chondrocyte cell death

## COc1cccc2c1C(=O)c1c(O)c3c(c(O)c1C2=O)C[C@@](O)(C(=O)CO)C[C@@H]3O[C@H]1C[C@H](N)[C@H](O)[C@H](C)O1 [doxorubicin]
Male Wistar rats
  reduction in tibia length: 18%
